Values quoted from earlier work as cited in paper PMC12736120, “First-in-Human Phase I Clinical Trial of SLC-391, a Novel and Selective AXL Inhibitor, in Patients with Advanced Solid Tumours” (Pharmaceuticals, 2025).

Tested on: multiple solid tumour and haematological tumour models
Design: method as in PMID 33786587, doi:10.1158/1538-7445.AM2014-2716, doi:10.1158/1538-7445.AM2014-1746, doi:10.1158/1538-7445.AM2015-5393, doi:10.1158/1538-7445.AM2017-4196
Conditions: alone or in combination with chemotherapy or immune checkpoint blockade; models including lung cancer, colon cancer, CML, AML; cited from earlier work

Nc1ncc(-c2cnn(C3CCNCC3)c2)cc1-c1nnc(CC2CC2)o1 [SLC-391, 3-(5-[cyclopropylmethyl]-1,3,4-oxadiazol-2-yl)-5-(1-[piperidin-4-yl]-1H-pyrazol-4-yl)-pyridin-2-amine]
tumour growth inhibition: results in tumour growth inhibition
